Reference: ChEMBL document CHEMBL5154648, “Antitumor activity of novel POLA1-HDAC11 dual inhibitors” (Eur J Med Chem, 2022)
Calls of active or inactive are those of the source. The rule behind the calls is not given here.

Legend:
NCI-H460 = assay: Antiproliferative activity against human NCI-H460 cells incubated for 24 hrs followed by incubating in drug-free medium for 48 hrs and measured by SRB assay; format: functional, cell-based
[1] = Antiproliferative activity against human H460-R9A cells incubated for 24 hrs followed by incubating in drug-free medium for 48 hrs and measured by SRB assay; format: functional, cell-based
[2] = Resistance index, ratio of IC50 for human NCI-H460 cells to IC50 for H460-R9A cells; format: functional
A2780 = assay: Antiproliferative activity against human A2780 cells incubated for 24 hrs followed by incubating in drug-free medium for 48 hrs and measured by SRB assay; format: functional, cell-based
[3] = Antiproliferative activity against multi-drug resistant human A2780-DX cells incubated for 24 hrs followed by incubating in drug-free medium for 48 hrs and measured by SRB assay; format: functional, cell-based
[4] = Resistance index, ratio of IC50 for human A2780 cells to IC50 for A2780-DX cells; format: functional
[5] = Antiproliferative activity against human MM432 cells incubated for 24 hrs followed by incubating in drug-free medium for 48 hrs and measured by SRB assay; format: functional, cell-based
MM473 = assay: Antiproliferative activity against human MM473 cells incubated for 24 hrs followed by incubating in drug-free medium for 48 hrs and measured by SRB assay; format: functional, cell-based
[6] = Antiproliferative activity against human MM487 cells incubated for 24 hrs followed by incubating in drug-free medium for 48 hrs and measured by SRB assay; format: functional, cell-based
Ramos = assay: Antiproliferative activity against human Ramos cells incubated for 24 hrs followed by incubating in drug-free medium for 48 hrs and measured by SRB assay; format: functional, cell-based
L-428 = assay: Antiproliferative activity against human L-428 cells incubated for 24 hrs followed by incubating in drug-free medium for 48 hrs and measured by SRB assay; format: functional, cell-based
U2932 = assay: Antiproliferative activity against human U2932 cells incubated for 24 hrs followed by incubating in drug-free medium for 48 hrs and measured by SRB assay; format: functional, cell-based
Z-138 = assay: Antiproliferative activity against human Z138 cells incubated for 24 hrs followed by incubating in drug-free medium for 48 hrs and measured by SRB assay; format: functional, cell-based
NB-4 = assay: Antiproliferative activity against human NB-4 cells incubated for 24 hrs followed by incubating in drug-free medium for 48 hrs and measured by SRB assay; format: functional, cell-based
THP-1 = assay: Antiproliferative activity against human THP-1 cells incubated for 24 hrs followed by incubating in drug-free medium for 48 hrs and measured by SRB assay; format: functional, cell-based
MDA-MB-436 = assay: Antiproliferative activity against human MDA-MB-436 cells incubated for 24 hrs followed by incubating in drug-free medium for 48 hrs and measured by SRB assay; format: functional, cell-based
[7] = Antiproliferative activity against human U-87 MG cells incubated for 24 hrs followed by incubating in drug-free medium for 48 hrs and measured by SRB assay; format: functional, cell-based, U-87MG ATCC
Histone deacetylase 11 = target: T1, Histone deacetylase 11 (Homo sapiens, UniProt Q96DB2); assay: Inhibition of HDAC11 (unknown origin) using fluorogenic peptide 382 RHKK(Ac)AM as substrate and measured by fluorescence assay
T1 sequence (Q96DB2 whole entry): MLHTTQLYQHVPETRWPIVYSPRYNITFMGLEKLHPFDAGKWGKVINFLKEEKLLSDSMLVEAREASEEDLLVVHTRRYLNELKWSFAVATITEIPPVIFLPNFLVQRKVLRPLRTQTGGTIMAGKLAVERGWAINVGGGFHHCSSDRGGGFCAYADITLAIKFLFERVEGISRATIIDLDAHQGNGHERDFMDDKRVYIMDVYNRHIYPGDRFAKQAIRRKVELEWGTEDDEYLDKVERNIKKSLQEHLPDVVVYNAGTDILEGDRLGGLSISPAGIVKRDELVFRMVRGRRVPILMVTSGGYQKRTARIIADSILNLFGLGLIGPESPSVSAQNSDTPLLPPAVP

[8] = target: T2, DNA polymerase alpha catalytic subunit (Homo sapiens) (UniProt P09884); assay: Inhibition of POLA1 in human NCI-H460 cells at 0.1 to 0.4 uM assessed as upregulation of p21 expression and measured by Western blot analysis; format: cell-based; details: dose 0.1-0.4 µM
T2 sequence (whole entry): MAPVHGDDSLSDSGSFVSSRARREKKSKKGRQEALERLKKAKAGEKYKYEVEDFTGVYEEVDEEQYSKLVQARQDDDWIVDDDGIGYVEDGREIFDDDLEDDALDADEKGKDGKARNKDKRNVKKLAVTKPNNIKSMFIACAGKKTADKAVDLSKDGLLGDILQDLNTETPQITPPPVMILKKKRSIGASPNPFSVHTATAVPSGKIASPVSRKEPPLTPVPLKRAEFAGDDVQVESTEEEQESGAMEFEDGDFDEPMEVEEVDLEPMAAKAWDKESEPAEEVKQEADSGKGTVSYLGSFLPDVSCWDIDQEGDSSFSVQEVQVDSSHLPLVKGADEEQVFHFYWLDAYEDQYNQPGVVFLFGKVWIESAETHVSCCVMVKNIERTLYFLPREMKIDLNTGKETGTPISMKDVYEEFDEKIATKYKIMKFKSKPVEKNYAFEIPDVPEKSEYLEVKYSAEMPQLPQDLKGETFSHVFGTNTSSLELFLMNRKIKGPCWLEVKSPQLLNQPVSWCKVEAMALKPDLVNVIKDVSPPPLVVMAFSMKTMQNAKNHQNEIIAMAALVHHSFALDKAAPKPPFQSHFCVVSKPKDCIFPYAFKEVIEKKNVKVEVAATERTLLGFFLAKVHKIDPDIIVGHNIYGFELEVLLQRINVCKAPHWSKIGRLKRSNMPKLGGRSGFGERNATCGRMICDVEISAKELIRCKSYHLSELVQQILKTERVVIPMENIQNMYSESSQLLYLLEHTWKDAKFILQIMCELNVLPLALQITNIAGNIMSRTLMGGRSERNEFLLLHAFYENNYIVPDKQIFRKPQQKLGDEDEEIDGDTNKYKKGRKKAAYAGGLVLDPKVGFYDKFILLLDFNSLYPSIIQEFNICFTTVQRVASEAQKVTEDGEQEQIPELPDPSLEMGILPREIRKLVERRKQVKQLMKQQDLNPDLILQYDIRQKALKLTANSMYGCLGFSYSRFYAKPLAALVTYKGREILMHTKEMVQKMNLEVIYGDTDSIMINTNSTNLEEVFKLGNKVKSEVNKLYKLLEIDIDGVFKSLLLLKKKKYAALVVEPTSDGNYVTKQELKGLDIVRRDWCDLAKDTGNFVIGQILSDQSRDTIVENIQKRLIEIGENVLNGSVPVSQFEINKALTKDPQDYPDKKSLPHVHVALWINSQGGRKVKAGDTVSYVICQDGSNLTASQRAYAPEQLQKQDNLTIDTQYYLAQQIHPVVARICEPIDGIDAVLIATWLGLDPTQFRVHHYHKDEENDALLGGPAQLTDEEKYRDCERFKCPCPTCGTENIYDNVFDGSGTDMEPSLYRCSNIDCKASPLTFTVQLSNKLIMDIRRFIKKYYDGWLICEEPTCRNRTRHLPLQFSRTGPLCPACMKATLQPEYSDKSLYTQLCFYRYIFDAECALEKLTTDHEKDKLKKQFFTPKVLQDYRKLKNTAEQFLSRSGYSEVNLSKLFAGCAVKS

Row | IC50 (NCI-H460) [nM] | IC50 (A2780) [nM] | IC50 (Ramos) [nM] | IC50 (THP-1) [nM] | IC50 (MDA-MB-436) [nM] | IC50 (Histone deacetylase 11) [nM] | inhibition [8] | Structure (SMILES) | IC50 [1] [nM] | Ratio IC50 [2] | IC50 [3] [nM] | Ratio IC50 [4] | IC50 [5] [nM] | IC50 (MM473) [nM] | IC50 [6] [nM] | IC50 (L-428) [nM] | IC50 (U2932) [nM] | IC50 (Z-138) [nM] | IC50 (NB-4) [nM] | IC50 [7] [nM]
1 | 120 | 98 | 290 | 150 | 550 | > 10000 | Active | O=C(O)C=Cc1ccc(-c2ccc(O)c(C34CC5CC(CC(C5)C3)C4)c2)cc1 | 8400 | 70 | 170 | 1.7 | 430 | 600 | 100 | 450 | 77 | 26 | 100 | 530
2 | 250 | 600 | 710 | 420 | 640 | 6090 | Active | O=C(O)C=Cc1ccc(-c2ccc(OCC(=O)NO)c(C34CC5CC(CC(C5)C3)C4)c2)cc1 | 2800 | 11.2 | 410 | 0.7 | 900 | 12000 | 22000 | 2100 | 520 | 38 | 180 | 1100
3 | 260 | 950 | 1200 | 520 | 770 | 8230 | Active | CC(Oc1ccc(-c2ccc(C=CC(=O)O)cc2)cc1C12CC3CC(CC(C3)C1)C2)C(=O)NO (configuration not stated) | 2200 | 8.5 | 660 | 0.7 | 1400 | 1400 | 730 | 3200 | 770 | 160 | 230 | 1000
